Key:
[1] = test system: DNA; experiment: Reaction of E2-3,4-Q or enzymatically-activated 4-OHE2 with DNA in vitro; assay type: biochemical; conditions: enzymatically activated (peroxidases, tyrosinase, microsomes), all cases
Method: To determine whether DNA adducts are formed in biological systems, E2-3,4-Q or enzymatically-activated 4-hydroxyestradiol (4-OHE2) was reacted with DNA for 2 h at 37° C. The stable adducts were quantified by the ^32P-postlabeling method, and the depurinating adducts were analyzed by high pressure liquid chromatography (HPLC) interfaced with an electrochemical detector. When E2-3,4-Q reacted with DNA, almost the same amount of the depurinating adducts 4-OHE2-1-N3Ade and 4-OHE2-1-N7Gua were obtained, and the amount of stable adducts was 0.02% of the depurinating ones. Activation of 4-OHE2 by horseradish peroxidase gave similar results, whereas the mammalian lactoperoxidase produced a similar amount of N3Ade adduct, but about 50% more N7Gua adduct. The same two depurinating adducts were obtained in equal but smaller amounts when 4-OHE2 was activated with tyrosinase or phenobarbital-induced rat liver microsomes. In all cases, the level of stable adducts was 0.02% or less compared to the depurinating adducts (Li K. M., et al., Proc. Am. Assoc. Cancer Res., 39, 636 (1998); Cavalieri, et al., unpublished results).

[2] = test system: mouse skin DNA; experiment: DNA adducts formed in mouse skin by PAH; assay type: in vivo
[3] = test system: H-ras gene; experiment: H-ras mutation spectra in treated mouse skin (PCR, cloning, sequencing, with or without TDG treatment); assay type: in vivo; conditions: for A/T to G/C mutations, percent of total mutations / A/T to G/C mutations/total mutations: skin DNA
Method: Evidence in support of this was obtained from a comparative study of mutations in the mouse skin H-ras gene induced by 200 nmol of DB[a,l]P or 200 nmol of anti-DB[a,l]P-11,12-dihydrodiol-13,14-epoxide (anti-DB[a,l]PDE). Unlike DB[a,l]P, anti-DB[a,l]PDE forms 97% stable adducts and 3% depurinating adducts in DNA. In these experiments, the types of mutations that are induced in the early preneoplastic times was identified (12 h to 9 days after treatment) and then analyzed whether these mutations were induced as a result of error-prone repair (FIG. 4). The mutations were identified by PCR amplifying a segment of the H-ras gene from DNA extracted from mouse skin treated with one of the carcinogens, cloning the PCR products in a plasmid, isolating individual subclones and sequencing the H-ras inserts to identify mutations. (Chakravarti D., et al., Mutation Res., 456, 17-32 (2000); Cavalieri E. L. and Rogan E. G., Mechanisms of tumor initiation by polycyclic aromatic hydrocarbons in mammals. In: The Handbook of Environmental Chemistry: PAHs and Related Compounds, 3J, 81-117, Neilson A. H. (ed.), Springer, Heidelberg, Germany (1998).)
In this technique, G.T heteroduplexes in skin DNA are converted to G.apyrimidinic sites by treatment with T.G-DNA glycosylase (TDG) (FIG. 5). (Chakravarti D., et al., Mutation Res., 456, 17-32 (2000).)
Since abasic site-containing DNA molecules are refractory to PCR amplification, the conversion of G.T heteroduplexes into G. apyrimidinic sites makes H-ras molecules containing these heteroduplexes unamplifiable. […] As a result, PCR amplification of the H-ras gene from TDG-treated skin DNA, followed by cloning the PCR product and isolating and determining the sequence of individual subclones, causes a specific, drastic reduction of A to G mutations in the mutation spectra. In addition, the preferential PCR amplification artificially enriches low-abundance mutations that are observed only in TDG-treated spectra.
Following the entry of skin cells into S-phase, however, the G.T heteroduplexes are converted into G.C and A.T base pairs by one round of replication. […] Thus, the specific reduction of A to G mutations in the mutation spectra by the TDG-PCR procedure characterizes these mutations as G.T heteroduplexes. […] Therefore, A to G mutations remained as G.T heteroduplexes until one day after DB[a,l]P treatment of the skin; beyond which they were present as G.C and A.T mutations, presumably by replication. Flow cytometric analysis of epidermal keratinocytes isolated from DB[a,l]P-treated mouse skin confirms that cells begin to enter the S-phase one day after the treatment. (Chakravarti D., et al., Mutation Res., 456, 17-32 (2000); Chakravarti et al., unpublished results).
Treatment of mouse skin with 200 nmol of E2-3,4-Q induced primarily A/T to G/C mutations in the H-ras gene (FIG. 7). For example, 6 h after E2-3,4-Q treatment, 7 mutations were identified among 29 H-ras inserts. Five of the seven were A/T to G/C mutations. At 12 h, four out of the six mutations found in 30 H-ras inserts were A/T to G/C mutations. […] The observation that E2-3,4-Q induces mutations at 6 h is, therefore, a basis to propose that these mutations are induced by error-prone repair. To confirm this, TDG-PCR analysis of these mutations was conducted (FIG. 7). […] At 12 h, the change was from 4 in 30 H-ras inserts to 0 in 41 plasmids. […] The TDG-treated 1 day spectrum was dominated by two clonal mutations of equal frequency (codon 16 AAG to AGG and intronic C to T mutations). Because it is unlikely that the intronic mutation would affect Ras activity and the two clonal mutations were found in the same frequency, these mutations may be allelic, belonging to a clonally proliferating population. […] (Chakravarti D., et al., Oncogene, 20, 7945-7953 (2001).)

[4] = test system: cloned H-ras gene (pWT); experiment: Mutations after PCR of pWT plasmid treated in vitro, with or without TDG; conditions: pWT DNA
Description: FIGS. 4A-D depict H-ras mutations induced by DB[a,l]P or its metabolite, anti-DB[a/l]PDE. Wild type sequences and nucleotide numbers (GenBank accession No. U89950) are indicated below and mutations are indicated above the line. (A) PCR artifact mutations induced in untreated skin DNA and in a cloned H-ras gene (pWT) treated with anti-DB[a,l]PDE or with acid. Under the treatment conditions, anti-DB[a,l]PDE induces 1 adduct per 1000 bases and acid induces 1 depurination per 170 bases (Chakravarti, D. Et al., Mutat. Res., 456, 17-32 (2000)). (B) H-ras mutations in mouse skin DNA after treatment with 200 nmol DB[a,l]P in 100 μL acetone. At 12 h-1 d, the spectra contained mostly A/T to G/C mutations. At days 2 and 3, multiple codon 61 mutations were observed. At 4 d, no clear pattern of mutations could be determined. At days 5 and 6, multiple codon 52 (CTA to CCA) mutations were observed. […] (C) H-ras mutations in mouse skin DNA after treatment with 200 nmol of anti-DB[a,l]PDE in 100 μL acetone. Fifty to sixty percent of mutations between days 1 to 4 were A/T to G/C mutations. (D) H-ras mutations after TDG treatment of DNA from anti-DB[a,l]PDE-treated pWT and from DB[a,l]P- or anti-DB[a,l]PDE-treated mouse skin. […] These mutations were also observed at days 2 and 3. In addition, at days 2 and 3, multiple codon 13 (GGC to GTC) mutations were observed.
On the other hand, anti-DB[a,l]PDE formed approximately 50% A/T to G/C mutations, which correlated with 48.5% formation of anti-DB[a,l]PDE-Ade stable adducts in mouse skin DNA (Table 2). […] Studies conducted in other laboratories also indicate that nucleotide excision repair of bulky stable adducts is error-free. When the pWT plasmid was treated with anti-DB[a,l]PDE in vitro (97% bulky stable adducts) and subjected to PCR amplification, A/T to G/C mutations was also found to constitute 50% of all mutations (5 out of 10) (FIG. 4A). These mutations are induced by translesional synthesis over bulky stable adducts by the PCR polymerases. If, as has been proposed by others, only a small population of PAH-induced bulky stable adducts is removed by pre-replication repair, a large fraction of anti-DB[a,l]PDE-induced adducts would persist in the mouse skin DNA. It is, therefore, possible that the mutations found in anti-DB[a,l]PDE-treated mouse skin DNA are adduct-induced PCR artifacts. The similarity of the frequencies of A/T to G/C mutations in vitro and in skin is consistent with this idea.

[5] = test system: Harvey (H)-ras oncogene; experiment: H-ras mutations in mouse skin papillomas initiated by PAH; assay type: in vivo; conditions: codon 61, skin papillomas
[6] = test system: H-ras gene codon 61 (CAA to CTA); experiment: PCR-RFLP detection of H-ras codon 61 mutations in treated mouse skin; assay type: in vivo
Description: In this technique, a segment of the H-ras gene is PCR-amplified and the product is restricted with XbaI to examine the induction of a RFLP from the codon 61 mutation. It was observed that at one day, 0.1% of the H-ras genes in the treated area of skin contained the codon 61 mutation, and then the population of these mutations increased to a maximum of 5% between 3 and 4 days after DB[a,l]P treatment. Subsequently, the level of mutations was reduced to background levels (0.0001%). The early time of induction of the codon 61 mutations (one day after DB[a,l]P treatment) coincides with suppression of DNA synthesis and induction of excision repair. Therefore, perhaps DB[a,l]P-induced DNA damage is converted into mutations by error-prone excision repair in pre-S-phase cells. (Chakravarti D., et al., Oncogene, 16, 3203-3210 (1998); Slaga T. J., et al., Cancer Res., 34a, 771-777 (1974); Sawyer T. W., et al., Carcinogenesis, 9, 1197-1202 (1988); Gill R. D., et al., Environ. Mol. Mutagen., 18, 200-206 (1991).)

**Q.** Which “level of stable adducts compared to the depurinating adducts” value [1] does the source give for `C[C@]12CC[C@@H]3c4ccc(O)c(O)c4CC[C@H]3[C@@H]1CC[C@@H]2O` [4-OHE2, 4-hydroxyestradiol] here?
**A.** ≤ 0.02%

**Q.** Which “depurinating adducts formed, share of adducts” value ([2]; DNA) does the source give for `OC1c2cc3ccc4cccc5c6ccccc6c(c2C2OC2C1O)c3c45` (stereo not drawn) [anti-DB[a,l]PDE, anti-dibenzo[a,l]pyrene-11,12-dihydrodiol-13,14-epoxide] here?
**A.** 3%

**Q.** What about the “stable adducts formed, share of adducts” value ([2]; DNA) of the same compound?
**A.** 97%

**Q.** And the “Ade stable adducts formed” value ([2]; mouse skin DNA)?
**A.** 48.5%

**Q.** And the “A/T to G/C mutations formed, share of mutations” value ([3]; mouse skin)?
**A.** approximately 50%

**Q.** And the “A/T to G/C mutations, percent of total mutations” value (“A/T to G/C mutations, percent” below) ([3]; day 1, +TDG)?
**A.** 80%

**Q.** What about the “A/T to G/C mutations/total mutations” value ([3]; day 1, +TDG) of the same compound?
**A.** 4/5

**Q.** What about the “A/T to G/C mutations, percent” value ([3]; day 1, −TDG) of the same compound?
**A.** 62.5%

**Q.** What about the “A/T to G/C mutations/total mutations” value ([3]; day 1, −TDG) of the same compound?
**A.** 5/8

**Q.** And the “A/T to G/C mutations, percent” value ([4]; +TDG)?
**A.** 60%

**Q.** What about the “A/T to G/C mutations/total mutations” value ([4]; +TDG) of the same compound?
**A.** 3/5

**Q.** And the “A/T to G/C mutations, percent” value ([4]; −TDG)?
**A.** 50%

**Q.** And the “A/T to G/C mutations/total mutations” value ([4]; −TDG)?
**A.** 5/10

**Q.** With `c1ccc2c(c1)cc1ccc3cccc4c5ccccc5c2c1c34` [DB[a,l]P, dibenzo[a,l]pyrene] as the compound, how does the “depurinations through depurinating adducts versus spontaneous base loss” value ([2]; spontaneous: 10,000-20,000 depurinations/cell/day) read?
**A.** approximately 120 fold

**Q.** And the “H-ras Mutations, No. of mutations/No. of mice, CAA→CTA” value [5]?
**A.** 10/12 CAA→CTA

**Q.** What about the “A/T to G/C mutations, percent” value ([3]; day 1, +TDG) of the same compound?
**A.** 20%

**Q.** And the “A/T to G/C mutations/total mutations” value ([3]; day 1, +TDG)?
**A.** 2/10

**Q.** And the “A/T to G/C mutations, percent” value ([3]; day 1, −TDG)?
**A.** 90%

**Q.** What about the “A/T to G/C mutations/total mutations” value ([3]; day 1, −TDG) of the same compound?
**A.** 10/11

**Q.** And the “A/T to G/C mutations, percent” value ([3]; day 2, +TDG)?
**A.** 27%

**Q.** What about the “A/T to G/C mutations/total mutations” value ([3]; day 2, +TDG) of the same compound?
**A.** 6/22

**Q.** What about the “A/T to G/C mutations, percent” value ([3]; day 2, −TDG) of the same compound?
**A.** 31%

**Q.** What about the “A/T to G/C mutations/total mutations” value ([3]; day 2, −TDG) of the same compound?
**A.** 11/35

**Q.** And the “A/T to G/C mutations, percent” value ([3]; day 3, +TDG)?
**A.** 32%

**Q.** What about the “A/T to G/C mutations/total mutations” value ([3]; day 3, +TDG) of the same compound?
**A.** 8/25

**Q.** And the “A/T to G/C mutations, percent” value ([3]; day 3, −TDG)?
**A.** 31%

**Q.** What about the “A/T to G/C mutations/total mutations” value ([3]; day 3, −TDG) of the same compound?
**A.** 7/22

**Q.** And the “H-ras genes in treated skin containing the codon 61 mutation” value ([6]; 200 nmol, at one day)?
**A.** 0.1%

**Q.** What about the “H-ras genes containing the codon 61 mutation, maximum” value ([6]; 200 nmol, between 3 and 4 days after treatment) of the same compound?
**A.** 5%

**Q.** And the “level of codon 61 mutations, subsequently reduced to background levels” value ([6]; after days 3-4)?
**A.** 0.0001%

**Q.** Which “H-ras Mutations, No. of mutations/No. of mice, CAA→CTA” value [5] does the source give for `Cc1c2ccccc2c(C)c2c1ccc1ccccc12` [DMBA, 7,12-dimethylbenz[a]anthracene] here?
**A.** 4/4 CAA→CTA
